Target: Cx50 (Mus musculus, UniProt P28236)
Type: biochemical

Cx50, sequence (P28236 2-440): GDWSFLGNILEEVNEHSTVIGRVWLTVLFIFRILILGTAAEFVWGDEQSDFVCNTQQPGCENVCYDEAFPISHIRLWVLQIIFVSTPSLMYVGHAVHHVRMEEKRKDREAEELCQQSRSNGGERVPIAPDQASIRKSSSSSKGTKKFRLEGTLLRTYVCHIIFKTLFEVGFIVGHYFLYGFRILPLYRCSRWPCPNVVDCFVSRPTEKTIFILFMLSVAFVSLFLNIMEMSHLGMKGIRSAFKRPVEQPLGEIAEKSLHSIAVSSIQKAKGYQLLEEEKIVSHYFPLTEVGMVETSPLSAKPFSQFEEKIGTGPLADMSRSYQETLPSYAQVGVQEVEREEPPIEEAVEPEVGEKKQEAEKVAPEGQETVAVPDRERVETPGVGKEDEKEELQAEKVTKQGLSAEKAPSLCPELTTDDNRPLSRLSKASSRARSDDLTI

In the case of C=C[C@H]1C[N+]2(Cc3ccccc3)CC[C@H]1C[C@H]2[C@H](O)c1ccnc2ccc(OC)cc12 [BQ+, N-benzylquininium], the IC50 is reported as 340 µM.
